Source: PMC11834572, “MoxR effects as an ATPase on anti-stress and pathogenicity of Riemerella anatipestifer” (Veterinary Research, 2025)

Target: T1, His6-MoxR (Riemerella anatipestifer, UniProt E4TDR4)
T1 construct: gene RA0C_2065
Settings: 37 °C, 1 h; ATP or His6-MoxR concentration varied

T1 sequence (E4TDR4 entry or part of it): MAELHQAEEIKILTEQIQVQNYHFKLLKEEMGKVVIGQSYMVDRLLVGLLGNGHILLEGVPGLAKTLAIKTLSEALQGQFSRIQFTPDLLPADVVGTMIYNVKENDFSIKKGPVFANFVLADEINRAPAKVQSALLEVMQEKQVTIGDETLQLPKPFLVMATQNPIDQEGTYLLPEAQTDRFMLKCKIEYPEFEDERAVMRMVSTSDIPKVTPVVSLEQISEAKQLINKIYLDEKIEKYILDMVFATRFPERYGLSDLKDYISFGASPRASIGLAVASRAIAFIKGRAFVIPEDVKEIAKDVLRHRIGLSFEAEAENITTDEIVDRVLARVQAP

## Nc1ncnc2c1ncn2[C@@H]1O[C@H](COP(=O)(O)OP(=O)(O)OP(=O)(O)O)[C@@H](O)[C@H]1O [ATP]
  phosphate release, molybdenum blue, absorbance at 660 nm: concentration of phosphate groups in each reaction system increased with higher amounts of His6-MoxR and ATP
